Marks after values point to notes of the source that are not given here.
What was measured:
[1] = test system: luciferase expression in the liver; assay: In vivo luciferase mRNA expression rodent model (liver luciferase after tail vein injection of mRNA-LNP); design: species or system mice (C57BL/6 or CD-1); conditions: liver 4 hours after administration, FLuc mRNA LNP; for Liver Luc @ 1.0 mg/kg: 1.0 mg mRNA/kg
Protocol: Lipid nanoparticles were prepared and tested according to the general procedures described in PCT Pub. Nos. WO 2015/199952 and WO 2017/004143, the full disclosures of which are incorporated herein by reference. Briefly, cationic lipid, DSPC, cholesterol and PEG-lipid were solubilized in ethanol at a molar ratio of about 50:10:38.5:1.5 or about 47.5:10:40.8:1.7. Lipid nanoparticles (LNP) were prepared at a total lipid to mRNA weight ratio of approximately 10:1 to 30:1. The mRNA is diluted to 0.2 mg/mL in 10 to 50 mM citrate or acetate buffer, pH 4. Syringe pumps were used to mix the ethanolic lipid solution with the mRNA aqueous solution at a ratio of about 1:5 to 1:3 (vol/vol) with total flow rates above 15 mL/min. The ethanol was then removed and the external buffer replaced with PBS by dialysis. Finally, the lipid nanoparticles were filtered through a 0.2 μm pore sterile filter. Lipid nanoparticle particle size was approximately 55-95 nm diameter, and in some instances approximately 70-90 nm diameter as determined by quasi-elastic light scattering using a Malvern Zetasizer Nano ZS (Malvern, UK).
Studies were performed in 6-8 week old female C57BL/6 mice (Charles River) or 8-10 week old CD-1 (Harlan) mice (Charles River) according to guidelines established by an institutional animal care committee (ACC) and the Canadian Council on Animal Care (CCAC). Varying doses of mRNA-lipid nanoparticle were systemically administered by tail vein injection and animals euthanized at a specific time point (e.g., 4 hours) post-administration. Liver and spleen were collected in pre-weighed tubes, weights determined, immediately snap frozen in liquid nitrogen and stored at −80° C. until processing for analysis.
For liver, approximately 50 mg was dissected for analyses in a 2 mL FastPrep tubes (MP Biomedicals, Solon Ohio). ¼″ ceramic sphere (MP Biomedicals) is added to each tube and 500 μL of Glo Lysis Buffer—GLB (Promega, Madison Wis.) equilibrated to room temperature is added to liver tissue. Liver tissues were homogenized with the FastPrep24 instrument (MP Biomedicals) at 2×6.0 m/s for 15 seconds. Homogenate was incubated at room temperature for 5 minutes prior to a 1:4 dilution in GLB and assessed using SteadyGlo Luciferase assay system (Promega). Specifically, 50 μL of diluted tissue homogenate was reacted with 50 μL of SteadyGlo substrate, shaken for 10 seconds followed by 5 minute incubation and then quantitated using a CentroXS^3 LB 960 luminometer (Berthold Technologies, Germany). The amount of protein assayed was determined by using the BCA protein assay kit (Pierce, Rockford Ill.). Relative luminescence units (RLU) were then normalized to total μg protein assayed. To convert RLU to ng luciferase a standard curve was generated with QuantiLum Recombinant Luciferase (Promega).
The FLuc mRNA (L-6107 or L-7202) from Trilink Biotechnologies will express a luciferase protein, originally isolated from the firefly, Photinus pyralis. FLuc is commonly used in mammalian cell culture to measure both gene expression and cell viability. It emits bioluminescence in the presence of the substrate, luciferin. This capped and poly-adenylated mRNA was fully substituted with respect to uridine and/or cytidine nucleosides.
Representative compounds of the disclosure shown in Table 2 were formulated using the following molar ratio: 50% cationic lipid/10% distearoylphosphatidylcholine (DSPC)/38.5% Cholesterol/1.5% PEG lipid 2-[2-(ω-methoxy(polyethyleneglycol2000)ethoxy]-N,N-ditetradecylacetamide) or 47.5% cationic lipid/10% DSPC/40.7% Cholesterol/1.8% PEG lipid. Relative activity was determined by measuring luciferase expression in the liver 4 hours following administration via tail vein injection as described in Example 1. The activity was compared at a dose of 1.0 or 0.5 mg mRNA/kg and expressed as ng luciferase/g liver measured 4 hours after administration, as described in Example 1. Compound numbers in Table 2 refer to the compound numbers of Table 1.

[2] = Determination of pKa of formulated lipids (TNS fluorescence assay in lipid nanoparticles); assay type: physicochemical; conditions: cationic lipid formulated in LNP (cationic lipid/DSPC/cholesterol/PEG-lipid 50/10/38.5/1.5 mol %); pH of half-maximal TNS fluorescence
Protocol: As described elsewhere, the pKa of formulated cationic lipids is correlated with the effectiveness of LNPs for delivery of nucleic acids (see Jayaraman et al, Angewandte Chemie, International Edition (2012), 51(34), 8529-8533; Semple et al, Nature Biotechnology 28, 172-176 (2010)). The preferred range of pKa is ˜5 to ˜7. The pKa of each cationic lipid was determined in lipid nanoparticles using an assay based on fluorescence of 2-(p-toluidino)-6-napthalene sulfonic acid (TNS). Lipid nanoparticles comprising cationic lipid/DSPC/cholesterol/PEG-lipid (50/10/38.5/1.5 mol %) in PBS at a concentration of 0.4 mM total lipid were prepared using the in-line process as described in Example 1. TNS was prepared as a 100 μM stock solution in distilled water. Vesicles were diluted to 24 μM lipid in 2 mL of buffered solutions containing, 10 mM HEPES, 10 mM IVIES, 10 mM ammonium acetate, 130 mM NaCl, where the pH ranged from 2.5 to 11. An aliquot of the TNS solution was added to give a final concentration of 1 μM and following vortex mixing fluorescence intensity was measured at room temperature in a SLM Aminco Series 2 Luminescence Spectrophotometer using excitation and emission wavelengths of 321 nm and 445 nm. A sigmoidal best fit analysis was applied to the fluorescence data and the pKa was measured as the pH giving rise to half-maximal fluorescence intensity.

[3] = test system: luciferase expression in the liver; assay: In vivo luciferase mRNA expression rodent model (liver luciferase after tail vein injection of mRNA-LNP); design: species or system mice (C57BL/6 or CD-1); conditions: liver 4 hours after administration, FLuc mRNA LNP

SMILES | Liver Luc @ 1.0 mg/kg [1] [ng luc/g liver] | pKa [2] | Liver Luc determined at 0.3 mg/kg [3] [ng luc/g liver] | Liver Luc determined at 0.5 mg/kg [1]
CCCCCCCCC(CCCCCC)COC(=O)CCCCCC(CCCCCC(=O)OCC(CCCCCC)CCCCCCCC)N(CCN(C)C)C(=O)CCCCC(=O)OC (centres unmarked) [Compound I-16, bis(2-hexyldecyl) 7-(N-(2-(dimethylamino)ethyl)-6-methoxy-6-oxohexanamido)tridecanedioate] | 66763 ± 15823 | 6.25 |  | 
CCCCCCCCOC(=O)CCN(CCCCN(C)C)C(CCCCCC(=O)OCC(CCCCCC)CCCCCCCC)CCCCCC(=O)OCC(CCCCCC)CCCCCCCC (centres unmarked) [Compound I-4, bis(2-hexyldecyl) 7-((4-(dimethylamino)butyl)(3-(octyloxy)-3-oxopropyl)amino)tridecanedioate] | 46932 ± 17399 | 6.17 |  | 
CCCCCCC(CCCC)COC(=O)CCCCCC(CCCCCC(=O)OCC(CCCC)CCCCCC)N(CCCC(=O)N(CCCCCC)CCCCCC)CCCN(C)C (centres unmarked) [Compound I-20, bis(2-butyloctyl) 7-((4-(dihexylamino)-4-oxobutyl)(3-(dimethylamino)propyl)amino)tridecanedioate] | 17095 ± 8181 | 6.48 | 4140 ± 1117 | 
CCCCCCCCOC(=O)CCN(CCCCCN(C)C)C(CCCCCCCCC(=O)OCC(CCCC)CCCCCC)CCCCCCCCC(=O)OCC(CCCC)CCCCCC (centres unmarked) [Compound I-2, bis(2-butyloctyl) 10-((5-(dimethylamino)pentyl)(3-(octyloxy)-3-oxopropyl)amino)nonadecanedioate] | 682 ± 147 | 6.67 | 122 ± 18 | 
CCCCCCC(CCCC)COC(=O)CCCCCCCCC(CCCCCCCCC(=O)OCC(CCCC)CCCCCC)N(CCN(C)C)C(=O)CCCCC(=O)OC (centres unmarked) [Compound I-15, bis(2-butyloctyl) 10-(N-(2-(dimethylamino)ethyl)-6-methoxy-6-oxohexanamido)nonadecanedioate] | 21357 ± 15325 | 5.96 |  | 
CCCCCCC(CCCC)COC(=O)CCCCCCCCC(CCCCCCCCC(=O)OCC(CCCC)CCCCCC)N(CCCC(=O)N(CCCCCC)CCCCCC)CCCN(C)C (centres unmarked) [Compound I-21, bis(2-butyloctyl) 10-((4-(dihexylamino)-4-oxobutyl)(3-(dimethylamino)propyl)amino)nonadecanedioate] | 20223 ± 5982 | 6.4 | 7723 ± 1714 | 
CCCCCCCCOC(=O)CCN(CCCCN(C)C)C(CCCCCCCCC(=O)OCC(CCCC)CCCCCC)CCCCCCCCC(=O)OCC(CCCC)CCCCCC (centres unmarked) [Compound I-1] | 24031 ± 4777 | 6.11 |  | 
CCCCCCCCCN(CCCCN(C)C)C(CCCCCCCCC(=O)OCC(CCCC)CCCCCC)CCCCCCCCC(=O)OCC(CCCC)CCCCCC (centres unmarked) [Compound I-6] | 11290 ± 6455 | 6.22 | 4093 ± 1036 | 
CCCCCCCCC(CCCCCC)COC(=O)CCCCCC(CCCCCC(=O)OCC(CCCCCC)CCCCCCCC)N(CCCC(=O)N(CCCCCC)CCCCCC)CCN(C)C (centres unmarked) [Compound I-19, bis(2-hexyldecyl) 7-((4-(dihexylamino)-4-oxobutyl)(2-(dimethylamino)ethyl)amino)tridecanedioate] | 32706 ± 4621 | 5.95 |  | 
CCCCCCCCN(CCCCN(C)C)C(CCCCCCCCC(=O)OCC(CCCC)CCCCCC)CCCCCCCCC(=O)OCC(CCCC)CCCCCC (centres unmarked) [Compound I-23, bis(2-butyloctyl) 10-((4-(dimethylamino)butyl)(octyl)amino)nonadecanedioate] |  | 6.33 |  | 553 ± 153* *determined at 0.5 mg/kg ng luc/g liver
CCCCCCCCC(CCCCCC)C(=O)OCCCCCCN(CCCCN(C)C)C(CCCCCCCCC(=O)OCC(CC)CCCC)CCCCCCCCC(=O)OCC(CC)CCCC (centres unmarked) [Compound I-22, bis(2-ethylhexyl) 10-((4-(dimethylamino)butyl)(6-((2-hexyldecanoyl)oxy)hexyl)amino)nonadecanedioate] | 17654 ± 8167 | 6.28 | 5291 ± 1348 | 
CCCCCCCCC(CCCCCC)COC(=O)CCCCCC(CCCCCC(=O)OCC(CCCCCC)CCCCCCCC)N(CCN(C)C)C(=O)CCCCCCC(=O)OC (centres unmarked) [Compound I-18, bis(2-hexyldecyl) 7-(N-(2-(dimethylamino)ethyl)-8-methoxy-8-oxooctanamido)tridecanedioate] | 40650 ± 11479 | 6.02 |  | 
CCCCCCC(CCCC)COC(=O)CCCCCCCCC(CCCCCCCCC(=O)OCC(CCCC)CCCCCC)N(CCCN(C)C)C(=O)CCCCC(=O)OC (centres unmarked) [Compound I-14, bis(2-butyloctyl) 10-(N-(3-(dimethylamino)propyl)-6-methoxy-6-oxohexanamido)nonadecanedioate] |  | 6.8 |  | 669 ± 575* *determined at 0.5 mg/kg ng luc/g liver
CCCCCCCCC(CCCCCC)C(=O)OCCCCCCN(CCCCN(C)C)C(CCCCCCCCC(=O)OCC(CCCC)CCCCCC)CCCCCCCCC(=O)OCC(CCCC)CCCCCC (centres unmarked) [Compound I-5, bis(2-butyloctyl) 10-((4-(dimethylamino)butyl)(6-((2-hexyldecanoyl)oxy)hexyl)amino)nonadecanedioate] | 11720 ± 2439 | 6.08 |  | 
CCCCCCCCC(CCCCCC)COC(=O)CCCCCC(CCCCCC(=O)OCC(CCCCCC)CCCCCCCC)N(CCCN(C)C)C(=O)CCCCCCC(=O)OC (centres unmarked) [Compound I-17, bis(2-hexyldecyl) 7-(N-(3-(dimethylamino)propyl)-8-methoxy-8-oxooctanamido)tridecanedioate] | 26691 ± 13186 | 6.78 |  | 

Source: patent publication US11976019B2 (Acuitas Therapeutics, Inc., priority 2020, dated 2024)
